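1) Cells in 96-well plates. 2) Compound, 48 h, 5 concentrations. 3) Linear interpolation between surrounding doses. 4) Unreached endpoint = highest concentration. TGI is the concentration that stops growth completely.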
Assays:
Assay in all cases: growth of human tumour cells (NCI), 48 h
UACC-257 melanoma = tested on: UACC-257 melanoma
OVCAR-8 ovarian = tested on: OVCAR-8 ovarian
MALME-3M melanoma = tested on: MALME-3M melanoma
ACHN renal = tested on: ACHN renal
UO-31 renal = tested on: UO-31 renal
LOX IMVI melanoma = tested on: LOX IMVI melanoma
OVCAR-5 ovarian = tested on: OVCAR-5 ovarian
OVCAR-3 ovarian = tested on: OVCAR-3 ovarian
MDA-MB-231 breast = tested on: MDA-MB-231 breast
HCT-116 colon = tested on: HCT-116 colon
SF-539 CNS = tested on: SF-539 CNS
CCRF-CEM leukemia = tested on: CCRF-CEM leukemia
NCI-H23 lung = tested on: NCI-H23 lung
BT-549 breast = tested on: BT-549 breast
K-562 leukemia = tested on: K-562 leukemia
NCI/ADR-RES ovarian = tested on: NCI/ADR-RES ovarian
SF-268 CNS = tested on: SF-268 CNS
SNB-19 CNS = tested on: SNB-19 CNS
DU-145 prostate = tested on: DU-145 prostate

| Compound | TGI (UACC-257 melanoma) | TGI (OVCAR-8 ovarian) | TGI (MALME-3M melanoma) | TGI (ACHN renal) | TGI (UO-31 renal) | TGI (LOX IMVI melanoma) | TGI (OVCAR-5 ovarian) | TGI (OVCAR-3 ovarian) | TGI (MDA-MB-231 breast) | TGI (HCT-116 colon) | TGI (SF-539 CNS) | TGI (CCRF-CEM leukemia) | TGI (NCI-H23 lung) | TGI (BT-549 breast) | TGI (K-562 leukemia) | TGI (NCI/ADR-RES ovarian) | TGI (SF-268 CNS) | TGI (SNB-19 CNS) | TGI (DU-145 prostate) |
| --- | --- | --- | --- | --- | --- | --- | --- | --- | --- | --- | --- | --- | --- | --- | --- | --- | --- | --- | --- |
| O=[N+]([O-])c1ccc(CSc2nncc3[nH]cnc23)cc1 | > 100 µM | > 100 µM | > 100 µM | > 100 µM | > 100 µM | > 100 µM | > 100 µM | > 100 µM | > 100 µM | > 100 µM | > 100 µM | > 100 µM | > 100 µM | > 100 µM | > 100 µM | > 100 µM |  |  |  |
| CC1(C)OCN(c2ccc(N3CCOCC3)cc2)Cn2c1nc1ccccc12 | > 100 µM | > 100 µM | > 100 µM | > 100 µM | > 100 µM | > 100 µM |  | > 100 µM |  | > 100 µM | > 100 µM | > 100 µM | > 100 µM |  | > 100 µM |  | > 100 µM | > 100 µM |  |
| O=C1COc2cc(NC(=S)Nc3ccccc3)ccc2N1 | > 100 µM | > 100 µM | > 100 µM | > 100 µM | > 100 µM | > 100 µM | > 100 µM | > 100 µM |  | > 100 µM | > 100 µM | > 100 µM | > 100 µM |  | > 100 µM |  | > 100 µM | > 100 µM |  |
| COc1ccc(-c2c(C(C)=O)c(-c3ccccc3)n(C3OC(CO)C(O)C(O)C3O)c(=S)c2C#N)cc1 (stereo unspecified) | > 100 µM | > 100 µM | > 100 µM | > 100 µM | > 100 µM | > 100 µM | > 100 µM | > 100 µM | > 100 µM | > 100 µM | > 100 µM | > 100 µM | > 100 µM |  | > 100 µM | > 100 µM | > 100 µM | > 100 µM | > 100 µM |
| CC(=O)c1ccc(NC(=O)/C(CC(=O)c2sc(-c3cccnc3)nc2C)=N/NC(N)=O)cc1 |  | > 100 µM | > 100 µM | 56.1 µM | > 100 µM | > 100 µM | > 100 µM | > 100 µM |  | 42.5 µM |  | 66.5 µM |  |  | > 100 µM |  | > 100 µM | > 100 µM |  |
| CCOC1C(Br)Cn2c(=O)c3cc4ccccc4cc3c(=O)n2C1C (stereo unspecified) | > 100 µM | > 100 µM | > 100 µM | > 100 µM | > 100 µM | > 100 µM | > 100 µM | > 100 µM |  | > 100 µM | > 100 µM | > 100 µM | > 100 µM |  | > 100 µM |  | > 100 µM | > 100 µM |  |
| CCC(CC)NC1=C(NC(C)=O)C(=O)c2ccccc2C1=O | > 50 µM | > 50 µM | > 50 µM | > 50 µM | > 50 µM | > 50 µM |  | > 50 µM |  | > 50 µM | > 50 µM | > 50 µM | > 50 µM |  | > 50 µM |  | > 50 µM | > 50 µM |  |
| O=S(Cc1ccccc1)c1nc2ccccc2nc1-c1cccs1 (stereo unspecified) | 26.5 µM | 38.8 µM | 19.4 µM | 26.9 µM | 41 µM |  | 31.9 µM | 24 µM |  | 23.3 µM | 30 µM | > 100 µM | 33.8 µM |  | > 100 µM |  | 51.4 µM | 39.4 µM |  |
| COc1ccc2nc3cc(Cl)ccc3c(Sc3ccc([N+](=O)[O-])cc3C)c2c1 | > 100 µM | > 100 µM | > 100 µM | > 100 µM | > 100 µM | > 100 µM | > 100 µM | > 100 µM |  | > 100 µM | > 100 µM | > 100 µM | > 100 µM |  | > 100 µM |  | > 100 µM | > 100 µM |  |
| O=C(Nc1cccc(O)c1)C(=O)C1C(=O)NC(=S)NC1=O | > 100 µM | > 100 µM | > 100 µM | > 100 µM | > 100 µM | > 100 µM |  | > 100 µM |  | > 100 µM | > 100 µM | > 100 µM | > 100 µM |  | > 100 µM |  | > 100 µM | > 100 µM |  |
| N#C/C(=C/c1cccc(Oc2ccccc2)c1)c1ccccc1 | > 100 µM | > 100 µM | > 100 µM | > 100 µM | > 100 µM | > 100 µM | > 100 µM |  |  | > 100 µM | > 100 µM | > 100 µM | > 100 µM |  | > 100 µM |  | > 100 µM |  |  |
| CNC1(c2cc3ccccc3s2)CCCCC1 | 35.1 µM | > 100 µM |  | > 100 µM | > 100 µM | 40.9 µM | 95.7 µM | > 100 µM | 71.8 µM | > 100 µM | 46.3 µM |  | > 100 µM | > 100 µM | > 100 µM | > 100 µM | 42.8 µM | > 100 µM | > 100 µM |
| CCC1=CCN(c2cc(C)ccn2)OC1c1ccc(OC)cc1 (stereo unspecified) | 86.1 µM | > 100 µM | 84.1 µM | > 100 µM | > 100 µM | > 100 µM | > 100 µM | > 100 µM |  | 71.8 µM |  | 85.7 µM | > 100 µM |  | > 100 µM |  | > 100 µM | > 100 µM |  |

Reference: PubChem BioAssay (NCI)
